The record followed here is PubChem BioAssay AID330 (DTP/NCI, 2004).

The experiment deals with P388 leukemia ip, CD2F1 mice, survival T/C. Kind of experiment: NCI In Vivo Anticancer Drug Screen. Data for tumor model P388 Leukemia (intraperitoneal) in CD2F1 (CDF1) mice. Conditions: endpoint: median survival time, higher = longer survival. The method in brief: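 Mice carrying the transplanted tumor received test compound or vehicle. Survival was recorded in each group, and the value is the treated-group measurement divided by that of the vehicle-treated control group.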

The mark [1] stands for this setting: dose: 25.0 mg/kg/injection, schedule: Q01DX009 (ip), vehicle: saline.
Setting [2] is: dose: 50.0 mg/kg/injection, schedule: Q01DX009 (ip), vehicle: saline.
[3] abbreviates: dose: 100.0 mg/kg/injection, schedule: Q01DX009 (ip), vehicle: saline.
Where [4] appears, read: dose: 200.0 mg/kg/injection, schedule: Q01DX009 (ip), vehicle: saline.
Setting [5] is: dose: 50.0 mg/kg/injection, schedule: Q01DX009 (ip), vehicle: saline with Tween-80.
Where [6] appears, read: dose: 100.0 mg/kg/injection, schedule: Q01DX009 (ip), vehicle: saline with Tween-80.
The mark [7] stands for this setting: dose: 100.0 mg/kg/injection, schedule: Q01DX001 (ip), vehicle: Klucel (hydroxypropylcellulose) (HPC).
The mark [8] stands for this setting: dose: 200.0 mg/kg/injection, schedule: Q01DX001 (ip), vehicle: Klucel (hydroxypropylcellulose) (HPC).
[9] abbreviates: dose: 50.0 mg/kg/injection, schedule: Q01DX009 (ip), vehicle: Klucel (hydroxypropylcellulose) (HPC).
Where [10] appears, read: dose: 100.0 mg/kg/injection, schedule: Q01DX009 (ip), vehicle: Klucel (hydroxypropylcellulose) (HPC).
[11] abbreviates: dose: 200.0 mg/kg/injection, schedule: Q01DX009 (ip), vehicle: Klucel (hydroxypropylcellulose) (HPC).
[12] abbreviates: dose: 60.0 mg/kg/injection, schedule: Q01DX005 (ip), vehicle: saline with Tween-80.
Where [13] appears, read: dose: 120.0 mg/kg/injection, schedule: Q01DX005 (ip), vehicle: saline with Tween-80.
The mark [14] stands for this setting: dose: 200.0 mg/kg/injection, schedule: Q01DX009 (ip), vehicle: saline with Tween-80.
[15] abbreviates: dose: 25.0 mg/kg/injection, schedule: Q01DX005 (ip), vehicle: saline.
Where [16] appears, read: dose: 50.0 mg/kg/injection, schedule: Q01DX005 (ip), vehicle: saline.
Where [17] appears, read: dose: 100.0 mg/kg/injection, schedule: Q01DX005 (ip), vehicle: saline.
The mark [18] stands for this setting: dose: 200.0 mg/kg/injection, schedule: Q01DX005 (ip), vehicle: saline.

“And” between values parts separate entries of the source, which are not always exact repeats. Equal entries are not always repeated. Toxic doses and inconclusive results are not listed.

As for `O=C(N/N=C/c1cc(Cl)ccc1O)C(=O)N/N=C/c1cc(Cl)ccc1O`, the T/C runs as follows: (dose: 50.0 mg/kg/injection, schedule: Q01DX009 (ip), vehicle: water) 92 % of control; (dose: 100.0 mg/kg/injection, schedule: Q01DX009 (ip), vehicle: water) 92 % of control; (dose: 200.0 mg/kg/injection, schedule: Q01DX009 (ip), vehicle: water) 100 % of control.

As for `CC(=O)OCC1OC([S-])C(OC(C)=O)C(OC(C)=O)C1OC(C)=O.CC[PH+](CC)CC.CC[PH+](CC)CC.[Au].[Au]` (centres undefined), the T/C reads like this: (dose: 5.0 mg/kg/injection, schedule: Q01DX009 (ip), vehicle: Klucel (hydroxypropylcellulose) (HPC)) 121 % of control; (dose: 10.0 mg/kg/injection, schedule: Q01DX009 (ip), vehicle: Klucel (hydroxypropylcellulose) (HPC)) 163 % of control.

In the case of `O=C1CP(=O)(O)CC2=C1CCC2`, the T/C is, setting by setting: under setting [1], 96 % of control; under setting [2], 96 % of control; under setting [3], 100 % of control.

For `CCN(CC)CCn1cnc(C#N)c1N`, the T/C was 101 % of control under setting [2], 100 % of control under setting [3] and 108 % of control under setting [4].

With `CN(C)C1=NN(Cc2ccccc2)C(=O)C1`, the T/C is, setting by setting: under setting [2], 105 % of control; under setting [3], 103 % of control; under setting [4], 96 % of control.

In the case of `CC(=O)O[C@H]1[C@@H]2c3c(ccc4c(=O)cc(-c5ccccc5)oc34)O[C@@H]2OC1(C)C`, the T/C by setting is: (dose: 0.98 mg/kg/injection, schedule: Q01DX005 (ip), vehicle: Klucel (hydroxypropylcellulose) (HPC)) 100 % of control; (dose: 1.95 mg/kg/injection, schedule: Q01DX005 (ip), vehicle: Klucel (hydroxypropylcellulose) (HPC)) 98 % of control; (dose: 3.9 mg/kg/injection, schedule: Q01DX005 (ip), vehicle: Klucel (hydroxypropylcellulose) (HPC)) 86 % of control.

Consider `Nc1nc(N)nc(N2CCCC2)n1`, for which the T/C (dose: 25.0 mg/kg/injection, schedule: Q01DX009 (ip), vehicle: saline with Tween-80) is 101 % of control; the T/C under setting [5] is 97 % of control; the T/C under setting [6] is 92 % of control.

As for `C=C1CC2C3CCC=C3C(c3ccc(OC)cc3)C2C1=O` (centres undefined), the T/C was 112 % of control (dose: 25.0 mg/kg/injection, schedule: Q01DX001 (ip), vehicle: Klucel (hydroxypropylcellulose) (HPC)); 109 % of control (dose: 50.0 mg/kg/injection, schedule: Q01DX001 (ip), vehicle: Klucel (hydroxypropylcellulose) (HPC)); 107 % of control and 111 % of control under setting [7]; 106 % of control under setting [8].

Consider `O=C(/C=C(/SS/C(=C/C(=O)c1ccccc1)c1ccccc1)c1ccccc1)c1ccccc1`, for which the T/C was 98 % of control under setting [9], 98 % of control under setting [10] and 91 % of control under setting [11].

As to `Cc1cc2nc(CC(=O)c3ccncc3)c(=O)[nH]c2cc1C`, the T/C by setting is: under setting [12], 95 % of control; under setting [13], 87 % of control.

On to `CN(C)c1ccc(/C=C2\C=Cc3ccccc32)cc1Cl`, for which the T/C runs as follows: (dose: 6.25 mg/kg/injection, schedule: Q01DX009 (ip), vehicle: saline) 101 % of control; (dose: 12.5 mg/kg/injection, schedule: Q01DX009 (ip), vehicle: saline) 87 % of control; under setting [1], 94 % of control; under setting [2], 94 % of control.

Regarding `c1ccc(C2OCC3(CO2)COC(c2ccccc2)OC3)cc1` (centres undefined), the T/C was 90 % of control under setting [5], 100 % of control under setting [6] and 90 % of control under setting [14].

Consider `Ic1sc(I)c(I)c1I`, for which the T/C (dose: 6.25 mg/kg/injection, schedule: Q01DX001 (ip), vehicle: saline with Tween-80) was 100 % of control; the T/C (dose: 12.5 mg/kg/injection, schedule: Q01DX001 (ip), vehicle: saline with Tween-80) was 100 % of control; the T/C (dose: 25.0 mg/kg/injection, schedule: Q01DX001 (ip), vehicle: saline with Tween-80) was 105 % of control.

In the case of `Nc1nc(=O)n(C2CC(O)C(CO)O2)cc1Cl` (centres undefined), the T/C reads like this: under setting [15], 98 % of control; under setting [16], 105 % of control; under setting [17], 100 % of control; under setting [18], 110 % of control; (dose: 400.0 mg/kg/injection, schedule: Q01DX005 (ip), vehicle: saline) 107 % of control.

Consider `CN1C(C)(C)CC(O)(C#N)CC1(C)C`, for which the T/C runs as follows: under setting [16], 100 % of control; under setting [17], 98 % of control; under setting [18], 103 % of control.

Turning to `NCCNc1ncnc2ccc(Cl)cc12`, the T/C reads like this: (dose: 50.0 mg/kg/injection, schedule: Q01DX005 (ip), vehicle: saline with Tween-80) 97 % of control; (dose: 100.0 mg/kg/injection, schedule: Q01DX005 (ip), vehicle: saline with Tween-80) 93 % of control; (dose: 200.0 mg/kg/injection, schedule: Q01DX005 (ip), vehicle: saline with Tween-80) 92 % of control.

For `[Cl][Pt+2][Cl].[NH-]c1nc2ccc(Br)cc2s1.[NH-]c1nc2ccc(Br)cc2s1`, the T/C is 103 % of control (dose: 100.0 mg/kg/injection, schedule: Q04DX002 (ip), vehicle: saline with Tween-80) and 91 % of control (dose: 200.0 mg/kg/injection, schedule: Q04DX002 (ip), vehicle: saline with Tween-80).

Regarding `Cn1c(=O)n2n(c1=O)C1C3C4C3C3C5(COCC135)C42` (centres undefined), the T/C under setting [9] is 97 % of control, the T/C under setting [10] was 92 % of control and the T/C under setting [11] is 97 % of control.

For `COC(=O)CN(CC(=O)OC)C1CC1N(CC(=O)OC)CC(=O)OC` (centres undefined), the T/C is 89 % of control under setting [9]; 98 % of control under setting [7]; 97 % of control under setting [10]; 102 % of control under setting [8]; 95 % of control under setting [11]; 89 % of control (dose: 400.0 mg/kg/injection, schedule: Q01DX001 (ip), vehicle: Klucel (hydroxypropylcellulose) (HPC)).

Consider `NCCCCC(NC(=O)c1ccccc1)C(=O)O` (centres undefined), for which the T/C reads like this: under setting [5], 98 % of control; under setting [6], 100 % of control; under setting [14], 104 % of control.

Take `C1=Nc2ccccc2Oc2ccc3ccccc3c21`: the T/C runs as follows: under setting [5], 107 % of control; under setting [6], 99 % of control; under setting [14], 107 % of control.

Turning to `Cc1ccc(-c2cnc3c(n2)c(=O)[nH]c(=O)n3C)cc1`, the T/C was 103 % of control (dose: 100.0 mg/kg/injection, schedule: Q04DX003 (ip), vehicle: Klucel (hydroxypropylcellulose) (HPC)) and 98 % of control (dose: 200.0 mg/kg/injection, schedule: Q04DX003 (ip), vehicle: Klucel (hydroxypropylcellulose) (HPC)).

For `COC(=O)C12C3C4C1C1C2C3C41C(=O)OC` (centres undefined), the T/C runs as follows: under setting [12], 102 % of control; under setting [13], 102 % of control; (dose: 240.0 mg/kg/injection, schedule: Q01DX005 (ip), vehicle: saline with Tween-80) 102 % of control.

As for `CC(O)CC(O)CC1CCCO1` (centres undefined), the T/C reads like this: (dose: 12.5 mg/kg/injection, schedule: Q01DX005 (ip), vehicle: saline) 98 % of control; under setting [15], 97 % of control; under setting [16], 98 % of control and 88 % of control.

Take `CCOC(=O)NNS(=O)(=O)CCC(NC(=O)OCc1ccccc1)C(=O)OCc1ccccc1` (centres undefined): the T/C (dose: 12.5 mg/kg/injection, schedule: Q01DX009 (ip), vehicle: other) was 96 % of control; the T/C (dose: 25.0 mg/kg/injection, schedule: Q01DX009 (ip), vehicle: other) is 104 % of control; the T/C (dose: 50.0 mg/kg/injection, schedule: Q01DX009 (ip), vehicle: other) is 104 % of control; the T/C (dose: 100.0 mg/kg/injection, schedule: Q01DX009 (ip), vehicle: other) is 104 % of control; the T/C (dose: 200.0 mg/kg/injection, schedule: Q01DX009 (ip), vehicle: other) is 104 % of control.

Regarding `COc1cccc2c1C(=O)c1c(O)c3c(c(O)c1C2=O)C[C@@](O)(C(C)=O)C[C@@H]3OC1CC(NC=O)C(O)C(C)O1` (some centres undefined), the T/C (dose: 1.56 mg/kg/injection, schedule: Q01DX009 (ip), vehicle: saline) was 117 % of control; the T/C (dose: 3.13 mg/kg/injection, schedule: Q01DX009 (ip), vehicle: saline) is 119 % of control; the T/C under setting [2] was 153 % of control; the T/C under setting [3] was 155 % of control.
